{
  "source": "patent US12233073B2",
  "about": "“Skin care formulations and skin cancer treatment” (Regents of the University of Minnesota, priority 2017, dated 2025)",
  "key": {"[1]": {"tested_on": "SSL-induced skin tumors in SKH-1 hairless mice", "protocol": "The effectiveness of different candidate compounds in preventing sUV-induced cancer was evaluated. SKH-1 hairless mice (Charles River, Burlington, Massachusetts) were treated with formulations including one or more candidate compounds and exposed to SSL (solar simulated light). Female mice aged 5-6 weeks at the beginning of the study were used. The mice were exposed to SSL three times a week for 15 weeks from the beginning of the study. At week 1, the SSL dose included 37 kJ/m^2 UVA and 1.8 kJ/m^2 UVB three times per week. […] At week 6, the dose included 60 kJ/m^2 UVA and 2.9 kJ/m^2 UVB and this dose was maintained until week 15 at which time SSL exposure was stopped. Each mouse received a topical application (on the dorsal skin surface posterior to the base of the neck and anterior to the base of the tail) of one or more candidate compounds in a base cream one hour before SSL exposure. 15 weeks onwards, the mice were no longer exposed to SSL but the topical application of cream with sunscreen compounds was continued until 30 weeks. Control mice received topical application of cream with sunscreen compounds but no SSL.\nTumors were counted by sight. The dimensions of each tumor were measured using a digital caliper. Tumor volume (mm^3) was determined as (length×width^2)×0.52, where the length and width were measured in mm. […] Average or total tumor volumes were compared between vehicle (cream)-treated mice exposed to SSL and compound in cream-treated mice exposed to SSL."}, "[2]": {"tested_on": "skin of SKH-1 hairless mice", "test": "H&E staining of skin of mice treated with anti-sUV agents", "assay_type": "in vivo, mouse", "details": "solar UV-exposed groups G13-G24", "description": "FIG. 40 is a photograph comparing H&E (hematoxylin and eosin) stained tissue sample of mice exposed to solar ultraviolet and treated with anti-sUV agents and mice unexposed to solar ultraviolet. H&E staining can show skin damage (see TABLE 5 for group identification). […] None of the compounds in the absence of solar UV caused any damage and none had any adverse effect on skin thickness. G11 and G12 are the positive controls, being groups treated with solar UV without or with vehicle (cream)."}, "[3]": {"tested_on": "Ki-67", "test": "Ki-67 immunohistological staining of skin of mice treated with anti-sUV agents", "assay_type": "in vivo, mouse", "details": "solar UV-exposed groups", "description": "FIG. 41 is a photograph comparing Ki-67 immunohistological-stained tissue samples of mice exposed to solar ultraviolet and treated with anti-sUV agents and mice unexposed to solar ultraviolet."}, "[4]": {"details": "following one hour of exposure to sunlight; cited from earlier work"}, "[5]": {"details": "SSL-exposed, compound in cream, percent per TABLE 5, 15 mice"}, "[6]": {"details": "no SSL exposure, compound in cream, percent per TABLE 5"}},
  "note": "Read-outs that look alike come from different tables or passages of the source.",
  "data": [
    {"smiles": "COc1ccc(C(=O)CC(=O)c2ccc(C(C)(C)C)cc2)cc1", "note": "[Avobenzone]", "values": [
      {"measurement": "% Effective Protection (% reduction in tumor volume vs SSL with cream only)", "setting": "[1]; SSL-exposed, compound in cream, percent per TABLE 5", "result": 72.8, "unit": "%"},
      {"measurement": "% Mice with tumor", "setting": "[1]; [5]", "result": 93.3, "unit": "%"},
      {"measurement": "% Mortality", "setting": "[1]; [5]", "result": 6.7, "unit": "%"},
      {"measurement": "Average volume of tumors", "setting": "[1]; [5]", "result": 46.1, "unit": "mm^3"},
      {"measurement": "Avg. no. of tumors", "setting": "[1]; [5]", "result": 3.7},
      {"measurement": "Number of dead mice", "setting": "[1]; [5]", "result": 1},
      {"measurement": "Total no. of tumors", "setting": "[1]; [5]", "result": 55},
      {"measurement": "Total volume of tumors", "setting": "[1]; [5]", "result": 691.5, "unit": "mm^3"},
      {"measurement": "% Mice with tumor", "setting": "[1]; female, SKH-1 hairless, mouse, in vivo, 30 weeks", "result": 0, "unit": "%"},
      {"measurement": "% Mortality/Number of dead mice", "setting": "[1]; [6]", "result": 0},
      {"measurement": "Total/Average volume of tumors", "setting": "[1]; [6]", "result": 0},
      {"measurement": "Total/Avg. no. of tumors", "setting": "[1]; [6]", "result": 0},
      {"measurement": "H&E staining: epidermal thickening and skin damage", "setting": "[2]", "result": "epidermal thickening and skin damage"},
      {"measurement": "Ki-67 staining: abnormal cell proliferation", "setting": "[3]", "result": "extensive abnormal proliferation"},
      {"measurement": "change in UV absorbance", "setting": "[4]", "result": "approximately 36%"}
    ]}
  ]
}
